One assay deals with T1, hTLR7 (Homo sapiens, UniProt Q9NYK1).
T1 construct: host or cells: HEK-Blue hTLR7 (HEK293-derived reporter line)
T1 sequence (Q9NYK1 27-1049): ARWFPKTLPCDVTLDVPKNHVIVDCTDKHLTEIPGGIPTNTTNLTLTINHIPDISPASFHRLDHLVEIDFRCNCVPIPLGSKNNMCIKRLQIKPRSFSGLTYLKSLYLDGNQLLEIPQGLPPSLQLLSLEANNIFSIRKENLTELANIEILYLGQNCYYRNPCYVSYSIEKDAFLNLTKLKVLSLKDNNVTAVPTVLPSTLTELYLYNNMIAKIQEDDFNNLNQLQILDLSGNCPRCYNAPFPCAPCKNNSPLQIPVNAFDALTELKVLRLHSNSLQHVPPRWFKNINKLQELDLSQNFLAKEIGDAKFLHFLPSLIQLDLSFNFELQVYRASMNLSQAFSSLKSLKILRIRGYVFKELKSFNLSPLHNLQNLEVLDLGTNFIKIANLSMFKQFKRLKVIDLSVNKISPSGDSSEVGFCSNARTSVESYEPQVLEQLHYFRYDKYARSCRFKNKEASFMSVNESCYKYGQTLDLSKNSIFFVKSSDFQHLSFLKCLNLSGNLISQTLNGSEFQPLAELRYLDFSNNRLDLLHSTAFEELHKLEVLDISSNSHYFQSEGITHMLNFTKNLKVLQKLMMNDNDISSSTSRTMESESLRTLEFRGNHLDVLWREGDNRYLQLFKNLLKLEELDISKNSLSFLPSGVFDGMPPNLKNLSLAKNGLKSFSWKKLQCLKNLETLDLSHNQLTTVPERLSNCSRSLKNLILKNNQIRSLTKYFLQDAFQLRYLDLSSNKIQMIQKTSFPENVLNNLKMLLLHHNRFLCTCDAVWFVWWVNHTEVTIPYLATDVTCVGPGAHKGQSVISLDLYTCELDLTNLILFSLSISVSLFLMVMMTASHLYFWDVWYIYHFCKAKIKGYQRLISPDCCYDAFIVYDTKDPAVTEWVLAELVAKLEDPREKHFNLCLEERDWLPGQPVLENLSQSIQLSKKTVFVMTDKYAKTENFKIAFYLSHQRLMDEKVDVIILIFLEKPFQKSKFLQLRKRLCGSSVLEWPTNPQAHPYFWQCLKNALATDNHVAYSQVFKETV
The experiment in a line: Activation activity test of hTLR7 (HEK-Blue hTLR7 cells, QUANTI-Blue OD650). The class given is cell-based. The following applies: 24 hours incubation, read-out: TLR7 (EC50). How it is done:
(§1) Effect Example 1: Activation Activity Test of hTLR7 and hTLR8
(§2) Cell lines: HEK-Blue™ hTLR7 and HEK-Blue™ hTLR8 (InvivoGen Co.)
(§3) Primary reagents: QUANTI-Blue™ (InvivoGen) and ATPlite 1 Step (PerkinElmer)
(§4) Primary instruments: Automatic Liquid Handling Workstation (Labcyte, Model: Echo), Cell Counter (Countstar, IC1000) and Multifunctional Enzyme Marker (Molecular Device, Flexstation III).
(§5) 2.1 The tested compounds were formulated into a 60 mM concentrated stock solution in DMSO and stored in a nitrogen cabinet.
(§6) 2.3 The T150 cultured cells were taken out from the CO2 incubator and the cell culture supernatant was discarded. The cells were washed with PBS once, followed by addition of about 10 mL of the culture solution. The cells were dissociated by patting the cell culture flask, and gently blown to even by a pipette.
(§7) The cells were counted, and the cell suspension was adjusted to 200,000 cells/mL by the culture solution. Thereafter, 200 μL of diluted cells was added to each well in a 96-well plate containing the compound (40,000 cells/well).
(§8) 2.4 The compounds and cells were incubated in a 5% CO2 incubator at 37° C. for 24 hours.
(§9) 2.5 Compound activity assay: 20 μl of the cell supernatant of each well after induction was added to a cell culture plate containing 180 μL of reagent QUANTI-Blue™, and incubated at 37° C. for 1.5 hours. Thereafter, the optical density absorption (OD650) of each well at 650 nm was measured using a Multifunctional Enzyme Marker: Flexstation III.
(§10) 2.6 Compound Activity: OD650 values were analyzed using GraphPad Prism software and the dose-response curves for the compound were fitted to calculate the EC50 values of the compound.

A further assay addresses T2, hTLR8 (Homo sapiens, UniProt Q9NR97).
T2 construct: host or cells: HEK-Blue hTLR8 (HEK293-derived reporter line)
T2 sequence (Q9NR97 27-1041): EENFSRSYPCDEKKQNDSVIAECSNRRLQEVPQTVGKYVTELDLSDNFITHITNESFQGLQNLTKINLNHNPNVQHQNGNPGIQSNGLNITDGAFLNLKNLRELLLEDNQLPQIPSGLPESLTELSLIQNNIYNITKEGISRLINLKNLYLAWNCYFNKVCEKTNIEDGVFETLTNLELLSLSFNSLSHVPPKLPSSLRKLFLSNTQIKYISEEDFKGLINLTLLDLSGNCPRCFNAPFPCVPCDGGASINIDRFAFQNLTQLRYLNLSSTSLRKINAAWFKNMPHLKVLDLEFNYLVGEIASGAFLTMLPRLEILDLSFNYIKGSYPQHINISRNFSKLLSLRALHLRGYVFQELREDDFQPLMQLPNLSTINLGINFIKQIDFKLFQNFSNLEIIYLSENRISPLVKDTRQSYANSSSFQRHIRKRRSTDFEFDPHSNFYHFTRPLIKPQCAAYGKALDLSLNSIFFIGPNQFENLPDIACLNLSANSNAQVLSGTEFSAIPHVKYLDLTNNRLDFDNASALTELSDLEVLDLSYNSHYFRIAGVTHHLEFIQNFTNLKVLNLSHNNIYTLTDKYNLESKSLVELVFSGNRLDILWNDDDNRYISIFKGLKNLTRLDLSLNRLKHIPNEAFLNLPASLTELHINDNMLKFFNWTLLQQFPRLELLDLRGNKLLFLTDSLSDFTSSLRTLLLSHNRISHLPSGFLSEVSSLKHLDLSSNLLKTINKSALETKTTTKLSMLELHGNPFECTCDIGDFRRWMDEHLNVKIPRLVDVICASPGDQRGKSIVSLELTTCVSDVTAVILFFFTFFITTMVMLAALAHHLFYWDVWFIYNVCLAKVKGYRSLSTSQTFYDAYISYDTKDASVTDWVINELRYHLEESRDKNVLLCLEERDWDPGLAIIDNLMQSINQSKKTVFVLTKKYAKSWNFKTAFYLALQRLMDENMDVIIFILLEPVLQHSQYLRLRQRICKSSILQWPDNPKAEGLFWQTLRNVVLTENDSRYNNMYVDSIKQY
The experiment in a line: Activation activity test of hTLR8 (HEK-Blue hTLR8 cells, QUANTI-Blue OD650). The class given is cell-based. The note with it: HEK-Blue hTLR8 cells, 24 hours incubation; read-out: TLR8 (EC50). The procedure:
as §1, §2, §3, §4, §5, §6, §7, §8, §9, §10

A value given as a limit tells only on which side of the number the result lay.

On to `COCCOc1ncc2[nH]c(=O)n(Cc3cccc(CN4CCCCCC4)c3)c2n1` [Example 21, 2-(2-methoxyethoxy)-9-(3-(azepan-1-ylmethyl)benzyl)-7,9-dihydro-8H-purin-8-one], for which the EC50 at hTLR7 is 10 to 100 µM; at hTLR8 it was more than 100 µM.
For `COCCOc1ncc2[nH]c(=O)n(Cc3cccc(CN4CC[C@@H](F)C4)c3)c2n1` [Example 22, (R)-9-(3-((3-fluoropyrrolidin-1-yl)methyl)benzyl)-2-(2-methoxyethoxy)-7,9-dihydro-8H-purin-8-one], in that order: 10 to 100 µM and more than 100 µM.
In the same order, the values of `COCCOc1ncc2[nH]c(=O)n(Cc3cccc(CN4CCC[C@@H]4C(=O)OC)c3)c2n1` [Example 23, methyl (3-((2-(2-methoxyethoxy)-8-oxo-7,8-dihydro-9H-purin-9-yl)methyl)benzyl)-D-pyrrolidine-2-carboxylate] are 10 to 100 µM and more than 100 µM.
For `COCCOc1ncc2[nH]c(=O)n(Cc3cccc(CN4CCC[C@H]4C(=O)OC)c3)c2n1` [Example 24, methyl (3-((2-(2-methoxyethoxy)-8-oxo-7,8-dihydro-9H-purin-9-yl)methyl)benzyl)-L-pyrrolidine-2-carboxylate], the EC50 on hTLR7 and on hTLR8 was more than 100 µM throughout.
For the molecule `COCCOc1ncc2[nH]c(=O)n(Cc3cccc(CN4CCN(C)CC4)c3)c2n1` [Example 25, 2-(2-methoxyethoxy)-9-(3-((4-methylpiperazin-1-yl)methyl)benzyl)-7,9-dihydro-8H-purin-8-one], the EC50 at hTLR7 is 10 to 100 µM; on hTLR8, more than 100 µM.
`COCCOc1ncc2[nH]c(=O)n(Cc3cccc(C(C)N4CCCC4)c3)c2n1` (centres unmarked) [Example 26, 2-(2-methoxyethoxy)-9-(3-(1-(pyrrolidin-1-yl)ethyl)benzyl)-7,9-dihydro-8H-purin-8-one]: the EC50 on hTLR7 was 10 to 100 µM; on hTLR8 it was more than 100 µM.
`CCCCOc1ncc2[nH]c(=O)n(Cc3cccc(CN4CCCC4)c3)c2n1` [Example 27, 2-butoxy-9-(3-(pyrrolidin-1-ylmethyl)benzyl)-7,9-dihydro-8H-purin-8-one]: the EC50 on hTLR7 is more than 100 µM; at hTLR8, 10 to 100 µM.
Regarding `O=c1[nH]c2cnc(OCC3CCOCC3)nc2n1Cc1cccc(CN2CCCC2)c1` [Example 28, 9-(3-(pyrrolidin-1-ylmethyl)benzyl)-2-((tetrahydro-2H-pyran-4-yl)methoxy)-7,9-dihydro-8H-purin-8-one], the concentration giving a half-maximal response (EC50) on hTLR7 and on hTLR8 was more than 100 µM throughout.
`O=c1[nH]c2cnc(OCCC3CC3)nc2n1Cc1cccc(CN2CCCC2)c1` [Example 29, 2-(2-cyclopropylethoxy)-9-(3-(pyrrolidin-1-ylmethyl)benzyl)-7,9-dihydro-8H-purin-8-one]: the EC50 at hTLR7 and at hTLR8 was more than 100 µM throughout.
`COCCOCCOc1ncc2[nH]c(=O)n(Cc3cccc(CN4CCCC4)c3)c2n1` [Example 30, 2-(2-(2-methoxyethoxy)ethoxy)-9-(3-(pyrrolidin-1-ylmethyl)benzyl)-7,9-dihydro-8H-purin-8-one]: the EC50 on hTLR7 and on hTLR8 was more than 100 µM in each case.
For `CCCCNc1ncc2[nH]c(=O)n(Cc3cccc(CN4CCCC4)c3)c2n1` [Example 31, 2-(butylamino)-9-(3-(pyrrolidin-1-ylmethyl)benzyl)-7,9-dihydro-8H-purin-8-one], the EC50 at hTLR7 and on hTLR8 was more than 100 µM in each case.
Regarding `COCCNc1ncc2[nH]c(=O)n(Cc3cccc(CN4CCCC4)c3)c2n1` [Example 32, 2-((2-methoxyethyl)amine)-9-(3-(pyrrolidin-1-ylmethyl)benzyl)-7,9-dihydro-8H-purin-8-one], the EC50 at hTLR7 and at hTLR8 was more than 100 µM in each case.
In the case of `CCCCSc1ncc2[nH]c(=O)n(Cc3cccc(CN4CCCC4)c3)c2n1` [Example 33, 2-butylthio-9-(3-(pyrrolidin-1-ylmethyl)benzyl)-7,9-dihydro-8H-purin-8-one], the EC50 on hTLR7 and on hTLR8 was more than 100 µM in each case.
As to `CCCC[S+]([O-])c1ncc2[nH]c(=O)n(Cc3cccc(CN4CCCC4)c3)c2n1` (centres unmarked) [Example 34, 2-butylsulfinyl-9-(3-(pyrrolidin-1-ylmethyl)benzyl)-7,9-dihydro-8H-purin-8-one], the EC50 on hTLR7 and on hTLR8 was more than 100 µM in each case.
Turning to `CCCCS(=O)(=O)c1ncc2[nH]c(=O)n(Cc3cccc(CN4CCCC4)c3)c2n1` [Example 35, 2-butylsulfonyl-9-(3-(pyrrolidin-1-ylmethyl)benzyl)-7,9-dihydro-8H-purin-8-one], the EC50 at hTLR7 and on hTLR8 was more than 100 µM throughout.
For `COCCOc1ncc2[nH]c(=O)n(C(C)c3ccc(CN4CCCC4)cc3)c2n1` (centres unmarked) [Example 36], the EC50 at hTLR7 was 10 to 100 µM; on hTLR8, more than 100 µM.
Regarding `CCOCCOc1ncc2[nH]c(=O)n(Cc3ccc(CN4CCCC4)cc3)c2n1` [Example 37, 2-(2-ethoxyethoxy)-9-(4-(pyrrolidin-1-ylmethyl)benzyl)-7,9-dihydro-8H-purin-8-one], the figures for the EC50 at hTLR7 and at hTLR8 were 1 to 10 µM and more than 100 µM, respectively.
For `O=c1[nH]c2cnc(OCCO)nc2n1Cc1ccc(CN2CCCC2)cc1` [Example 38, 2-(2-hydroxyethoxy)-9-(4-(pyrrolidin-1-ylmethyl)benzyl)-7,9-dihydro-8H-purin-8-one], in that order: 10 to 100 µM and more than 100 µM.
In the case of `COCCOc1cc2c(cn1)[nH]c(=O)n2Cc1ccc(CN2CCCC2)cc1` [Example 39, 6-(2-methoxyethoxy)-1-(4-(pyrrolidin-1-ylmethyl)benzyl)-1,3-dihydro-2H-imidazole-[4,5-c]pyridin-2-one], the EC50 is 10 to 100 µM on hTLR7 and more than 100 µM at hTLR8.
